The values below come from patent US8003734B2, “Biologically tolerated low molecular weight polyethylenimines” (priority 1997, dated 2011).

In one data set the test system is L929 mouse fibroblasts. The experiment in a line: Cytotoxicity study, MTT assay. It counts as cell-based. As to the method:
L929 mouse fibroblasts were cultured under the standard conditions with which the skilled person is familiar. These cells were sown in 96-well cell culture plates at a density of 8000 cells/well and cultured for 24 h before they were used for toxicity experiments.
The toxicity of the polymers was determined on L929 mouse fibroblasts using the MTT assay in accordance with the method of Mosmann et al. [Mosmann, J. Immunol. Methods 65: 55-63 (1983)]. The polymer dilution series were prepared in DMEM containing 10% FCS and 2 mM glutamine and sterilized by filtration (0.2 μm, Schleicher & Schuell, Dassel). The pH and osmolarity of the solutions were corrected if required. After a pre-incubation of 24 h, the cells were treated with the polymer solutions and incubated for 1, 3, 12 and 24 h. The viability of the cells was quantified UV-photometrically by measuring the formazan concentration.
In a second series of experiments, the cells were generally only treated with the polymers for 1 h, after which they were washed and then cultured for a further 3, 12 and 24 h in PEI-free cell culture medium. The evaluation was carried out as described above.
The toxicity of the PEIs was determined in vitro on L929 mouse fibroblasts, which various standard organizations recommend as the standard cell culture model for determining the cytotoxicity and biocompatibility of polymers. […]

For data set [1], the system named is pig brain capillary endothelial cells. As to the kind of experiment: In-vitro transfection of primary cultures, β-galactosidase reporter gene. It counts as cell-based. As to the method:
The cells, which were incubated at 37° C., 95% relative atmospheric humidity and 5% CO2, were passaged twice a week, after having reached confluence, using trypsin/EGTA solution (2.5% stock solution of trypsin, 50 mM solution of ethylene glycol tetraacetic acid, PBS, pH 7.4, in a ratio of 1:1:8). Since the cells detached from the substratum in cell clusters rather than individually, a ⅛ passage was carried out in each case. Cerebral capillary endothelial cells were isolated and cultured in accordance with the method of Bowman et al. and Mischek et al. [Mischek et al., Cell. Tiss. Res. 256: 221-226 (1989)]. […]
The ECV 304 cells and 3T3 mouse fibroblasts, which were sown in 3 cm^2 Petri dishes, and the primary endothelial cells, which were sown in 6-well culture plates, were washed with PBS, pH 7.4, immediately before the experiments and provided with new, serum-supplemented medium. […] The cells were subsequently incubated for 60 hours and the luciferase or β-galactosidase activity was determined in analogy with the manufacturer's instructions. […]
The transfection efficiency of the PEI complexes was determined both with cell lines (3T3 mouse fibroblasts and the human endothelial cell line ECV304) and with primary cultures (pig brain capillary endothelial cells). […]

Take polyethylenimine [LMW PEI]: the “cytotoxicity for fibroblasts as compared with that of HMW PEI” value with L929 mouse fibroblasts is recorded as “markedly reduced”. In data set [1], the “in-vitro maximum tolerable, noncytotoxic dose (MTD) of the complexes” value was 90 μg/10 μg of DNA.
